Earlier results on two compounds are cited in PMC5913986, “Repurposing and Reformulation of the Antiparasitic Agent Flubendazole for Treatment of Cryptococcal Meningoencephalitis, a Neglected Fungal Disease” (Antimicrobial Agents and Chemotherapy, 2018).

pIC50: −log10 of the molar value.

The target in the data set is T1, porcine tubulin (Sus scrofa, UniProt P02554).
T1 construct: purified porcine brain tubulin; purchased Cytoskeleton, Inc., Denver, CO BK011P; host or cells: porcine brain (tissue-purified)
Set-up: method as in doi:10.2533/chimia.2007.368. To be noted: known tubulin inhibitors; cited from earlier work.

T1 sequence (P02554 whole entry): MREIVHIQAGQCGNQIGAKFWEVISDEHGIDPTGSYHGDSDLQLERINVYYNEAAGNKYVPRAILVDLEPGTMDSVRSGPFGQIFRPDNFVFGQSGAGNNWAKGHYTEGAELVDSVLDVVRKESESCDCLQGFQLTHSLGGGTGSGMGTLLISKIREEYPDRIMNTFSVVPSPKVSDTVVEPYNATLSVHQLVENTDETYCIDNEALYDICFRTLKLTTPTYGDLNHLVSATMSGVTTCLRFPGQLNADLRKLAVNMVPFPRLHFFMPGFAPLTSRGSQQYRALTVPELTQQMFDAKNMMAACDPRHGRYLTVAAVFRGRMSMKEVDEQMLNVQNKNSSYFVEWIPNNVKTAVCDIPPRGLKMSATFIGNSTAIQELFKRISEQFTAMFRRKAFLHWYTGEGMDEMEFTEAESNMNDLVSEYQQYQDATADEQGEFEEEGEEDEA
T1 sequence (P02550 whole entry partner): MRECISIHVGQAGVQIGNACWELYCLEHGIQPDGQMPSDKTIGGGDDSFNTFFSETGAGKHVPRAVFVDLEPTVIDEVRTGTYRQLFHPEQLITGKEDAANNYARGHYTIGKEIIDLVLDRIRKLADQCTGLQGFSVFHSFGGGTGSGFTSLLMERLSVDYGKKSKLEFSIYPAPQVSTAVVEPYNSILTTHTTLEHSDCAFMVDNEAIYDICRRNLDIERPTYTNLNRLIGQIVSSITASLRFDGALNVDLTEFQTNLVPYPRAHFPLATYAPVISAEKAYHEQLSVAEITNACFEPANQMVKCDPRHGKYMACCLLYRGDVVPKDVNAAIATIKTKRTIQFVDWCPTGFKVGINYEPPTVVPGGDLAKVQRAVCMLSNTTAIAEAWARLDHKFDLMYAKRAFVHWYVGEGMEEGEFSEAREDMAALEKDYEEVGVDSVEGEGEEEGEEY

In the case of `CC[C@]1(O)C[C@@H]2CN(CCc3c([nH]c4ccccc34)[C@@](C(=O)OC)(c3cc4c(cc3OC)N(C)[C@H]3[C@@](O)(C(=O)OC)[C@H](OC(C)=O)[C@]5(CC)C=CCN6CC[C@]43[C@@H]65)C2)C1` [vinblastine], the negative-log IC50 (pIC50) was 5.28. In the case of `CC(=O)O[C@H]1C(=O)[C@@]2(C)[C@H]([C@H](OC(=O)c3ccccc3)[C@]3(O)C[C@H](OC(=O)[C@H](O)[C@@H](NC(=O)c4ccccc4)c4ccccc4)C(C)=C1C3(C)C)[C@]1(OC(C)=O)CO[C@@H]1C[C@@H]2O` [paclitaxel], the pIC50 was 5.41.

Broadly, the pIC50 is the negative decadic logarithm of the IC50, by convention in mol/L.
